Assays:
Experiment in all cases: IA-DTB cysteine engagement
Type in all cases: binding
HMOX2_C282 = target: T1, HMOX2_C282 (Homo sapiens, UniProt P30519); settings: 22Rv1 cells, relative to DMSO; for % engagement HMOX2_282: 5 μM probe, 1 h (FIG. 5B); for % engagement HMOX2_C282: 20 μM probe, 1 h
T1 construct: endogenous in cells; host or cells: 22Rv1
T1 sequence (P30519 1-316): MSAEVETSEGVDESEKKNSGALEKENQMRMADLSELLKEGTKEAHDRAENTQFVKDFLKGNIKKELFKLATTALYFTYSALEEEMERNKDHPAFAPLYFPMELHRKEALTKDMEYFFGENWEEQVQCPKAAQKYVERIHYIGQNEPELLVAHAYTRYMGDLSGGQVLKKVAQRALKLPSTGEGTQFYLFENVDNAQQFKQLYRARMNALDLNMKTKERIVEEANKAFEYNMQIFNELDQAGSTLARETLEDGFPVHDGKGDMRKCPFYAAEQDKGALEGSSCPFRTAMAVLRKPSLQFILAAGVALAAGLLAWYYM
Method in brief: (§1)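 In-situ probe treatment of cells; lysate 2 mg/mL, IA-DTB 1 h RT; MeOH/CHCl3 precipitation, DTT/iodoacetamide, trypsin; streptavidin enrichment; TMT labeling, high-pH fractionation. Ratio = TMT reporter intensity / mean DMSO channels, median-normalized.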

UNC13A_C999 = target: T2, UNC13A_C999 (Homo sapiens, UniProt Q9UPW8); settings: 22Rv1 cells, 20 μM probe, 1 h, relative to DMSO
T2 construct: endogenous in cells; host or cells: 22Rv1
Method in brief: as §1

PAFAH2_C72 = target: T3, PAFAH2_C72 (Homo sapiens, UniProt Q99487); settings: 22Rv1 cells, 20 μM probe, 1 h, relative to DMSO
T3 construct: endogenous in cells; host or cells: 22Rv1
Method in brief: as §1

ZNF346_C68 = target: T4, ZNF346_C68 (Homo sapiens, UniProt Q9UL40); settings: 22Rv1 cells, 20 μM probe, 1 h, relative to DMSO
T4 construct: endogenous in cells; host or cells: 22Rv1
T4 sequence (Q9UL40 1-294): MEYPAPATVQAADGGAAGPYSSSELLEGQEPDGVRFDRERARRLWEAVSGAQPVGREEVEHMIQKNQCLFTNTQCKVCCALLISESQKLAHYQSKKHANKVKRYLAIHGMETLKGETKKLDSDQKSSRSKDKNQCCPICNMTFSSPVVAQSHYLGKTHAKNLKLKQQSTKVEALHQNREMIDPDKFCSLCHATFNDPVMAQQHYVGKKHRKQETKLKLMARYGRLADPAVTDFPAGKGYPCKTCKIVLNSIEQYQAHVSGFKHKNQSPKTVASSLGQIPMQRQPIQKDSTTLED
Method in brief: as §1

C3orf33_C275 = target: T5, C3orf33_C275 (Homo sapiens, UniProt Q6P1S2); settings: 22Rv1 cells, 20 μM probe, 1 h, relative to DMSO
T5 construct: endogenous in cells; host or cells: 22Rv1
T5 sequence (Q6P1S2 1-294): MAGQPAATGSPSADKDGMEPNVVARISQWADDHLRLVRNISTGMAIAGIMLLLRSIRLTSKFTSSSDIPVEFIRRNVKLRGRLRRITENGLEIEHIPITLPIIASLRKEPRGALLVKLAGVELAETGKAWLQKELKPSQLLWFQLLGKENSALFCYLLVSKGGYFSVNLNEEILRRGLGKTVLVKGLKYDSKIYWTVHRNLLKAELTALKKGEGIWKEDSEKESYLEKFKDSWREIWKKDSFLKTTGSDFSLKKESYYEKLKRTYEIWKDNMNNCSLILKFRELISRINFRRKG
Method in brief: as §1

SNX11_C181 = target: T6, SNX11_C181 (Homo sapiens, UniProt Q9Y5W9); settings: 22Rv1 cells, 20 μM probe, 1 h, relative to DMSO
T6 construct: endogenous in cells; host or cells: 22Rv1
T6 sequence (Q9Y5W9 1-270): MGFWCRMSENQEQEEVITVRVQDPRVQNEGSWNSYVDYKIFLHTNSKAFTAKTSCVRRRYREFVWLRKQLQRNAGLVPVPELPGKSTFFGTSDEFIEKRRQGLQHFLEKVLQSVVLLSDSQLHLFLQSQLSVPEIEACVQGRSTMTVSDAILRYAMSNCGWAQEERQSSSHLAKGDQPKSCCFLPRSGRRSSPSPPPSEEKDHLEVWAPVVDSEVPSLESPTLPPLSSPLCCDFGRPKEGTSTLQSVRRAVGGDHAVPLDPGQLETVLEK
Method in brief: as §1

SMILES	% engagement HMOX2_282 (HMOX2_C282)	% engagement UNC13A_C999 (UNC13A_C999)	% engagement HMOX2_C282 (HMOX2_C282)	% engagement PAFAH2_C72 (PAFAH2_C72)	% engagement ZNF346_C68 (ZNF346_C68)	% engagement C3orf33_C275 (C3orf33_C275)	% engagement SNX11_C181 (SNX11_C181)
CC#CC(=O)N1C[C@H](c2ccc(Br)cc2)[C@@H]1C(=O)Nc1cccc2cccnc12 [MY-45B, (2R,3S)-3-(4-bromophenyl)-1-(but-2-ynoyl)-N-(quinolin-8-yl)azetidine-2-carboxamide]	92.13%	–	–	–	–	–	–
C=CC(=O)N1C[C@H](c2ccc(Br)cc2)[C@H]1C(=O)Nc1cccc2cccnc12 [MY-3A, (2S,3S)-1-acryloyl-3-(4-bromophenyl)-N-(quinolin-8-yl)azetidine-2-carboxamide]	–	100%	96.25%	56.75%	14%	85%	17%
C=CC(=O)N1C[C@H](c2ccc(Br)cc2)[C@@H]1C(=O)Nc1cccc2cccnc12 [MY-1B, (2R,3S)-1-acryloyl-3-(4-bromophenyl)-N-(quinolin-8-yl)azetidine-2-carboxamide]	94.00%	100%	96.25%	61%	37%	83%	68.5%
C=CC(=O)N1C[C@H](c2ccc(Br)cc2)[C@H]1C(=O)Nc1cccc2cccnc12 [MY-3B, (2S,3S)-1-acryloyl-3-(4-bromophenyl)-N-(quinolin-8-yl)azetidine-2-carboxamide]	–	23.5%	97.75%	81%	45.25%	84%	23%
C=CC(=O)N1C[C@@H](c2ccc(Br)cc2)[C@H]1C(=O)Nc1cccc2cccnc12 [MY-1A, (2S,3R)-1-acryloyl-3-(4-bromophenyl)-N-(quinolin-8-yl)azetidine-2-carboxamide]	–	54.5%	93.5%	61.75%	95.5%	83.5%	54.5%

— patent publication US20250034216A1, “STEREOSELECTIVE COVALENT LIGANDS FOR ONCOGENIC AND IMMUNOLOGICAL PROTEINS” (The Scripps Research Institute, priority 2021, published 2025)
